Results taken from patent US6358885B1, “Substituted phenylheterocyclic herbicides” (Mississippi State University, priority 1992, dated 2002).

Tests used:
blackgrass = test: Test C preemergence/postemergence greenhouse plant response rating 0 to 100; format: in vivo, Alopecurus myosuroides; details: POSTEMERGENCE; for Plant response rating, Blackgrass: 0 to 100 scale
How it was run: (§1)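 Compounds in non-phytotoxic solvent applied preemergence to sandy loam one day after planting, postemergence at the 1–4 leaf stage, or to ~2.5 cm floodwater over silt loam.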

chickweed = test: as above; format: in vivo, Stellaria media; details: POSTEMERGENCE; for Plant response rating, Chickweed: 0 to 100 scale
How it was run: as §1

giant foxtail [1] = test: as above; format: in vivo, Setaria faberii; details: POSTEMERGENCE; for Plant response rating, Giant foxtail: 0 to 100 scale
How it was run: as §1

bedstraw = test: Test B preemergence/postemergence greenhouse plant response rating 0 to 10; format: in vivo, Galium aparine; details: 0 to 10 scale
How it was run: (§2)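 Test chemicals were sprayed onto freshly planted seed and, concurrently, onto young plants between the one and four leaf stage. After a twelve- to sixteen-day greenhouse period, each species was visually compared with untreated controls.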

velvetleaf = test: as above; format: in vivo, Abutilon theophrasti; details: 0 to 10 scale
How it was run: as §2

morningglory [2] = test: Test C preemergence/postemergence greenhouse plant response rating 0 to 100; format: in vivo, Ipomoea hederacea; details: POSTEMERGENCE; for Plant response rating, Morningglory: 0 to 100 scale
How it was run: as §1

cocklebur = test: Test B preemergence/postemergence greenhouse plant response rating 0 to 10; format: in vivo, Xanthium pensylvanicum; details: 0 to 10 scale
How it was run: as §2

soybean [3] = test: as above; format: in vivo, Glycine max; details: 0 to 10 scale
How it was run: as §2

giant foxtail [4] = test: as above; format: in vivo, Setaria faberii; details: 0 to 10 scale
How it was run: as §2

soybean [5] = test: Test C preemergence/postemergence greenhouse plant response rating 0 to 100; format: in vivo, Glycine max; details: POSTEMERGENCE; for Plant response rating, Soybean: 0 to 100 scale
How it was run: as §1

sorghum = test: as above; format: in vivo, Sorghum bicolor; details: POSTEMERGENCE; for Plant response rating, Sorghum: 0 to 100 scale
How it was run: as §1

rape = test: as above; format: in vivo, Brassica napus; details: POSTEMERGENCE; for Plant response rating, Rape: 0 to 100 scale
How it was run: as §1

morningglory [6] = test: Test B preemergence/postemergence greenhouse plant response rating 0 to 10; format: in vivo, Ipomoea hederacea; details: 0 to 10 scale
How it was run: as §2

barley [7] = test: as above; format: in vivo, Hordeum vulgare; details: 0 to 10 scale
How it was run: as §2

cheatgrass = test: as above; format: in vivo, Bromus secalinus; details: 0 to 10 scale
How it was run: as §2

lambsquarters = test: as above; format: in vivo, Chenopodium album; details: 0 to 10 scale
How it was run: as §2

barley [8] = test: Test C preemergence/postemergence greenhouse plant response rating 0 to 100; format: in vivo, Hordeum vulgare; details: POSTEMERGENCE; for Plant response rating Barley Igri: 0 to 100 scale
How it was run: as §1

rice = test: Test C flood test plant response rating 0 to 100; format: in vivo, Oryza sativa; details: for Plant response rating Rice Japonica: flood test species listed under POSTEMERGENCE, 0 to 100 scale
How it was run: as §1

SMILES: COC(=O)c1cc(-c2nn3c(c2Cl)CCCC3)c(F)cc1Cl [Compound 43]
- Plant response rating, Blackgrass (blackgrass; 62 g/ha): 60
- Plant response rating, Blackgrass (blackgrass; 250 g/ha): 90
- Plant response rating (0 to 100), Blackgrass (blackgrass; Rate 4 g/ha): 20
- Plant response rating (0 to 100), Blackgrass (blackgrass; Rate 16 g/ha): 30
- Plant response rating, Chickweed (chickweed; 62 g/ha): 90
- Plant response rating, Chickweed (chickweed; 250 g/ha): 100
- Plant response rating (0 to 100), Chickweed (chickweed; Rate 4 g/ha): 60
- Plant response rating (0 to 100), Chickweed (chickweed; Rate 16 g/ha): 80
- Plant response rating, Giant foxtail (giant foxtail [1]; 62 g/ha): 50
- Plant response rating, Giant foxtail (giant foxtail [1]; 250 g/ha): 85
- Plant response rating (0 to 100), Giant foxtail (giant foxtail [1]; Rate 4 g/ha): 40
- Plant response rating (0 to 100), Giant foxtail (giant foxtail [1]; Rate 16 g/ha): 50
- Plant response rating, Bedstraw (bedstraw; POSTEMERGENCE, Rate 50 g/ha): 10
- Plant response rating, Bedstraw (bedstraw; POSTEMERGENCE, Rate 200 g/ha): 10
- Plant response rating, Bedstraw (bedstraw; PREEMERGENCE, Rate 50 g/ha): 0
- Plant response rating, Bedstraw (bedstraw; Rate 200 g/ha, PREEMERGENCE): 9
- Plant response rating, Velvetleaf (velvetleaf; POSTEMERGENCE, Rate 50 g/ha): 10
- Plant response rating, Velvetleaf (velvetleaf; PREEMERGENCE, Rate 50 g/ha): 5
- Plant response rating, Velvetleaf (velvetleaf; Rate 200 g/ha, POSTEMERGENCE): 10
- Plant response rating, Velvetleaf (velvetleaf; Rate 200 g/ha, PREEMERGENCE): 10
- Plant response rating, Morningglory (morningglory [2]; 62 g/ha): 90
- Plant response rating, Morningglory (morningglory [2]; 250 g/ha): 100
- Plant response rating (0 to 100), Morningglory (morningglory [2]; Rate 4 g/ha): 40
- Plant response rating (0 to 100), Morningglory (morningglory [2]; Rate 16 g/ha): 60
- Plant response rating, Cocklebur (cocklebur; POSTEMERGENCE, Rate 50 g/ha): 8
- Plant response rating, Cocklebur (cocklebur; POSTEMERGENCE, Rate 200 g/ha): 10
- Plant response rating, Cocklebur (cocklebur; PREEMERGENCE, Rate 50 g/ha): 0
- Plant response rating, Cocklebur (cocklebur; Rate 200 g/ha, PREEMERGENCE): 0
- Plant response rating, Soybean (soybean [3]; POSTEMERGENCE, Rate 50 g/ha): 8
- Plant response rating, Soybean (soybean [3]; PREEMERGENCE, Rate 50 g/ha): 4
- Plant response rating, Soybean (soybean [3]; Rate 200 g/ha, POSTEMERGENCE): 9
- Plant response rating, Soybean (soybean [3]; Rate 200 g/ha, PREEMERGENCE): 3
- Plant response rating, Giant foxtail (giant foxtail [4]; POSTEMERGENCE, Rate 50 g/ha): 5
- Plant response rating, Giant foxtail (giant foxtail [4]; PREEMERGENCE, Rate 50 g/ha): 0
- Plant response rating, Giant foxtail (giant foxtail [4]; Rate 200 g/ha, POSTEMERGENCE): 6
- Plant response rating, Giant foxtail (giant foxtail [4]; Rate 200 g/ha, PREEMERGENCE): 0
- Plant response rating, Soybean (soybean [5]; 62 g/ha): 70
- Plant response rating, Soybean (soybean [5]; 250 g/ha): 90
- Plant response rating (0 to 100), Soybean (soybean [5]; Rate 4 g/ha): 40
- Plant response rating (0 to 100), Soybean (soybean [5]; Rate 16 g/ha): 50
- Plant response rating, Sorghum (sorghum; 62 g/ha): 100
- Plant response rating, Sorghum (sorghum; 250 g/ha): 100
- Plant response rating (0 to 100), Sorghum (sorghum; Rate 4 g/ha): 40
- Plant response rating (0 to 100), Sorghum (sorghum; Rate 16 g/ha): 60
- Plant response rating, Rape (rape; 62 g/ha): 100
- Plant response rating, Rape (rape; 250 g/ha): 100
- Plant response rating (0 to 100), Rape (rape; Rate 4 g/ha): 80
- Plant response rating (0 to 100), Rape (rape; Rate 16 g/ha): 100
- Plant response rating, Morningglory (morningglory [6]; POSTEMERGENCE, Rate 50 g/ha): 10
- Plant response rating, Morningglory (morningglory [6]; PREEMERGENCE, Rate 50 g/ha): 0
- Plant response rating, Morningglory (morningglory [6]; Rate 200 g/ha, POSTEMERGENCE): 10
- Plant response rating, Morningglory (morningglory [6]; Rate 200 g/ha, PREEMERGENCE): 0
- Plant response rating, Barley (barley [7]; POSTEMERGENCE, Rate 50 g/ha): 3
- Plant response rating, Barley (barley [7]; POSTEMERGENCE, Rate 200 g/ha): 3
- Plant response rating, Barley (barley [7]; PREEMERGENCE, Rate 50 g/ha): 0
- Plant response rating, Barley (barley [7]; Rate 200 g/ha, PREEMERGENCE): 0
- Plant response rating, Cheatgrass (cheatgrass; POSTEMERGENCE, Rate 50 g/ha): 6
- Plant response rating, Cheatgrass (cheatgrass; POSTEMERGENCE, Rate 200 g/ha): 9
- Plant response rating, Cheatgrass (cheatgrass; PREEMERGENCE, Rate 50 g/ha): 2
- Plant response rating, Cheatgrass (cheatgrass; Rate 200 g/ha, PREEMERGENCE): 3
- Plant response rating, Lambsquarter (lambsquarters; POSTEMERGENCE, Rate 50 g/ha): 8
- Plant response rating, Lambsquarter (lambsquarters; PREEMERGENCE, Rate 50 g/ha): 9
- Plant response rating, Lambsquarter (lambsquarters; Rate 200 g/ha, POSTEMERGENCE): 10
- Plant response rating, Lambsquarter (lambsquarters; Rate 200 g/ha, PREEMERGENCE): 10
- Plant response rating Barley Igri (barley [8]; 62 g/ha): 50
- Plant response rating Barley Igri (barley [8]; 250 g/ha): 60
- Plant response rating (0 to 100), Barley Igri (barley [8]; Rate 4 g/ha): 30
- Plant response rating (0 to 100), Barley Igri (barley [8]; Rate 16 g/ha): 40
- Plant response rating (0 to 100), Rice Japonica (rice; POSTEMERGENCE section, flood test, Rate 4 g/ha): 35
- Plant response rating (0 to 100), Rice Japonica (rice; Rate 16 g/ha, under POSTEMERGENCE head (flood test species)): 60
- Plant response rating Rice Japonica (rice; 62 g/ha): 70
- Plant response rating Rice Japonica (rice; 250 g/ha): 75
